Experiment [1] has as its target T1, Cholecystokinin receptor type A (Rattus norvegicus, UniProt P30551).
T1 sequence (P30551 whole entry): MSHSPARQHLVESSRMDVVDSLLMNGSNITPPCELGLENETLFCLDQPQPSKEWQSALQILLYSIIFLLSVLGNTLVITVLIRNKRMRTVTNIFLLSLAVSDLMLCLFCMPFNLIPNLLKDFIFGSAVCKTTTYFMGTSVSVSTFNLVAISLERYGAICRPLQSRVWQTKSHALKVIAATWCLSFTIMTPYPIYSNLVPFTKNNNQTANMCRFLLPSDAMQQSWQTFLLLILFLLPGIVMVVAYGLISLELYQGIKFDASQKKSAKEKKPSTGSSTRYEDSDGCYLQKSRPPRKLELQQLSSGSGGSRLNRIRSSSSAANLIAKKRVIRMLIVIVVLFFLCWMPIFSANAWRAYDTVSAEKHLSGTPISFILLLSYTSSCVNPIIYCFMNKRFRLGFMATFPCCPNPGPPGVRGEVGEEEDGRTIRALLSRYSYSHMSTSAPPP
Description: Binding activity against Cholecystokinin type A receptor from rat pancreas using [125]BH CCK-8s as radioligand.

A short description of experiment [2]: Binding activity against Cholecystokinin type B receptor from guinea pig cortex using [125]BH CCK-8s as radioligand.

pIC50: −log10 of the molar value.

`Cc1cccc(NC(=O)NC2N=C(N3CC4CCC(CC4)C3)c3ccccc3N(C)C2=O)c1` (centres undefined) gave a negative-log IC50 (pIC50) in experiment [1] of 7.70.

Regarding `Cc1cccc(NC(=O)NC2N=C(N3CCCCC3)c3ccccc3N(C)C2=O)c1` (centres undefined), in experiment [1], the pIC50 is 7.77.

For the molecule `Cc1cccc(NC(=O)N[C@H]2N=C(N3CC4CCC(CC4)C3)c3ccccc3N(C)C2=O)c1`, the pIC50 in experiment [1] was 8.19.

Consider `Cc1cccc(NC(=O)N[C@@H]2N=C(C3CCCCC3)c3ccccc3N(C)C2=O)c1`, for which, in experiment [2], the pIC50 is 9.55.

By pIC50 is commonly meant −log10 of the IC50, conventionally taken in molar units. Low values mean a large IC50, high ones a small IC50.

The record behind these values is ChEMBL document CHEMBL1127663, “High-affinity and potent, water-soluble 5-amino-1,4-benzodiazepine CCKB/gastrin receptor antagonists containing a cationic solubilizing group” (J Med Chem, 1994).
